Source: patent publication US8383581B2, “Short-chain peptides as parathyroid hormone (PTH) receptor agonist” (Cadila Healthcare Limited, priority 2009, dated 2013)
Where a SMILES comes first, the peptide text is derived from it. [ ]: non-standard residue; d: D form. ξ: configuration not given here. ξαMePhe(2,6-F2) = CC(N)(Cc1c(F)cccc1F)C(=O)O; ξαMe(hhPhe) = CC(N)(CCCc1ccccc1)C(=O)O; ξαMePhe(2-F) = CC(N)(Cc1ccccc1F)C(=O)O; ξαMeW = CC(N)(Cc1c[nH]c2ccccc12)C(=O)O; hhPhe = N[C@@H](CCCc1ccccc1)C(=O)O; hArg = N=C(N)NCCCC[C@H](N)C(=O)O; ξαMeF = CC(N)(Cc1ccccc1)C(=O)O; NMeV = CN[C@H](C(=O)O)C(C)C; ξαMeNle = CCCCC(C)(N)C(=O)O; ξαMeV = CC(C)C(C)(N)C(=O)O; ξαMeM = CSCCC(C)(N)C(=O)O; Nle = CCCC[C@H](N)C(=O)O; ξαMeP = CC1(C(=O)O)CCCN1; Ac5c = NC1(C(=O)O)CCCC1; Ac3c = NC1(C(=O)O)CC1; Aib = CC(C)(N)C(=O)O

Legend:
[1] = system: ovariectomised (OVX) rats; assay: In vivo anti-osteoporosis activity testing in OVX rat model (serum calcium, phosphate, bone parameters); set-up: species or system Female Wistar Rats; settings: po
Source text: c) In Vivo Anti-Osteoporosis Activity Testing in OVX Rat Model: The ovariectomised (OVX) rats were used to study anti-osteoporosis activity of test compounds (short-chain peptides) in vivo. The OVX rats develop osteopenia due to ovarian hormone deficiency. Osteopenia can be detected as early as 14 days post OVX, increase for the next 100 days and then stabilised (Wronski T. J., et al., Calcif. Tissue Int., 43(3), 1988, 179-183). Detailed Study Protocol to Evaluate the Effects of Anabolic Therapy on Bone Markers and Histomorphometry in OVX Animals: 10 to 11 weeks old Female Wistar Rats (150-200 g) were used. The animals were kept in individually ventilated cages in a room with controlled temperature (23°±3° C.), lighting (12:12 h light-dark cycle) and relative humidity (55±10%). Animals had free access to standard rat chow and water. Protocol for use of animals for conducting this study has been reviewed and approved by Institutional Animal Ethics Committee (IAEC). The animals were marked with picric acid for identification and acclimatized to experimental room conditions for 2 days prior to initiation of the study. For the induction of osteoporosis, rats were bilaterally ovariectomised under anesthesia. For Ovariectomy, Incision was made on dorsa-lateral side near lumbar region of animal. After that, ovary was excised and the veins were tied with ligature before removing ovary to prevent blood loss. Then incision was sutured back with ligature. After Bilateral ovariectomy, animals were allowed to rest for 4 weeks. They were then divided into different groups (n=9) based on their body weight. The groups consisted of a no treatment control, PTH as standard and one or two groups of test compounds (short-chain peptides). The treatment was given for the duration of 6 weeks. At the last day of treatment animals were kept overnight in metabolic cages under fasting for the collection of Urine. Next day, blood was collected after 24 hours of last dosing and animals were sacrificed. Changes in biochemical parameters and bone turnover parameters (Increase in serum Calcium and decrease in Phosphate levels, Acid Phosphatase and TRAP) were evaluated in the urine and serum. After sacrificing, intact femur and tibial bones are removed and cleaned from adherent tissues, muscles and tendons; weighed and collected in formal saline (10% formaldehyde solution). Lumbar vertebra (L5) was excised, carefully cleaned and collected in formal saline. Femur, tibia and Lumbar vertebra-5 (L5) were later processed for histomorphometric evaluation (Zhang L., et al., Tohoku J Exp Med., 1998, 186(2), 131-41; Tanizawa T., et al., Toxicol Lett., 1998, 102, 399-403).

[2] = Stability of peptides in human plasma; assay type: in vitro ADME; settings: human, plasma; for metabolised at 24 h, 2 μM: pH 7.8
Procedure, shortened: (§1)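 Peptides at 2 μM final incubated 0–24 h at 37 °C (50 mM triethanolamine-HCl, pH 7.8) in each matrix, matrix level set to degrade ~50% PTH(1-34) in 1 h; TFA-quenched, C18 HPLC at 206 nm with ESI-MS peak identification; percent degradation from peak areas at each time point.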

[3] = Stability of peptides in simulated gastric fluid (pH 1.5; HCl, NaCl and Pepsin); assay type: in vitro ADME; settings: pH 1.5; for % degradation of peptides in 24 h when incubated with simulated gastric fluid: 2 μM; for half-life: simulated gi fluid
[4] = Stability of peptides in simulated intestinal fluid (pH 7.5); assay type: in vitro ADME; settings: pH 7.5; for half-life: simulated gi fluid; for % degradation of peptides in 24 h when incubated with simulated intestinal fluid: 2 μM
Procedure, shortened: as §1

[5] = Stability of peptides in human liver microsomes; assay type: in vitro ADME; settings: human, microsomes; for % degradation of peptides in 24 h when incubated with liver microsomes: 2 μM, pH 7.8
Procedure, shortened: as §1

SMILES	half-life [2]	metabolised at 24 h, 2 μM [2]	% degradation of peptides in 24 h when incubated with simulated gastric fluid [3]	half-life [3]	half-life [4]	% degradation of peptides in 24 h when incubated with simulated intestinal fluid [4]	half-life [5]	% degradation of peptides in 24 h when incubated with liver microsomes [5]	further results
CC[C@H](C)[C@H](NC(=O)[C@H](CCC(=O)O)NC(=O)C(C)(C)NC(=O)[C@@H](NC(=O)C(C)(C)N)C(C)C)C(=O)N[C@@H](CCC(N)=O)C(=O)N[C@@H](CC(C)C)C(=O)N[C@@H](CCSC)C(=O)N[C@@H](Cc1c[nH]cn1)C(=O)N[C@@H](CCC(N)=O)C(=O)N[C@@H](CCCCNC(=N)N)C(=O)N1CCCC1(C)C(=O)N[C@@H](CCCCN)C(=O)NC(C)(Cc1ccccc1)C(N)=O (some centres unmarked) [Seq. ID. 7] (H-[Aib]V[Aib]EIQLMHQ[hArg][ξαMeP]K[ξαMeF]-NH2)	–	–	–	–	–	–	–	–	% decrease in serum PO4 Levels (mg/dl) vs control ([1]; 1 mg/kg): 88%; % increase in serum Ca^2+ Levels (mg/dl) vs control ([1]; 1 mg/kg): 90%
CC[C@H](C)[C@H](NC(=O)[C@H](CCC(=O)O)NC(=O)C(C)(C)NC(=O)[C@@H](NC(=O)C1(N)CC1)C(C)C)C(=O)N[C@@H](CCC(N)=O)C(=O)N[C@@H](CC(C)C)C(=O)N[C@@H](CCSC)C(=O)N[C@@H](Cc1c[nH]cn1)C(=O)N[C@@H](CCC(N)=O)C(=O)N[C@@H](CCCCNC(=N)N)C(=O)N1CCCC1(C)C(=O)N[C@@H](CCCCN)C(=O)NC(C)(Cc1ccccc1)C(N)=O (some centres unmarked) [Seq. ID. 12] (H-[Ac3c]V[Aib]EIQLMHQ[hArg][ξαMeP]K[ξαMeF]-NH2)	–	–	–	–	–	–	–	–	% decrease in serum PO4 Levels (mg/dl) vs control ([1]; 5 mg/kg): 102%; % increase in serum Ca^2+ Levels (mg/dl) vs control ([1]; 5 mg/kg): 118%
CCCC[C@H](NC(=O)C(C)(Cc1c(F)cccc1F)NC(=O)[C@H](CCC(N)=O)NC(=O)[C@@H](NC(=O)[C@H](CCC(=O)O)NC(=O)C(C)(C)NC(=O)[C@@H](NC(=O)C1(N)CC1)C(C)C)[C@@H](C)CC)C(=O)N[C@@H](Cc1c[nH]cn1)C(=O)N[C@@H](CCC(N)=O)C(=O)N[C@@H](CCCCNC(=N)N)C(=O)N[C@@H](C)C(=O)N[C@@H](CCCCN)C(=O)NC(C)(Cc1ccccc1)C(N)=O (some centres unmarked) [Seq. ID. 39] (H-[Ac3c]V[Aib]EIQ[ξαMePhe(2,6-F2)][Nle]HQ[hArg]AK[ξαMeF]-NH2)	–	–	–	–	–	–	–	–	% decrease in serum PO4 Levels (mg/dl) vs control ([1]; 0.03 mg/kg): 66%; % increase in serum Ca^2+ Levels (mg/dl) vs control ([1]; 0.03 mg/kg): 88%
CCCC[C@H](NC(=O)C(C)(Cc1c(F)cccc1F)NC(=O)[C@H](CCC(N)=O)NC(=O)[C@@H](NC(=O)[C@H](CCC(=O)O)NC(=O)C(C)(C)NC(=O)[C@@H](NC(=O)C(C)(C)N)C(C)C)[C@@H](C)CC)C(=O)N[C@@H](Cc1c[nH]cn1)C(=O)N[C@@H](CCC(N)=O)C(=O)N[C@@H](CCCCNC(=N)N)C(=O)N1CCCC1(C)C(=O)N[C@@H](CCCCN)C(=O)NC(C)(Cc1ccccc1F)C(N)=O (some centres unmarked) [Seq. ID. 72] (H-[Aib]V[Aib]EIQ[ξαMePhe(2,6-F2)][Nle]HQ[hArg][ξαMeP]K[ξαMePhe(2-F)]-NH2)	–	–	–	–	–	–	–	–	% decrease in serum PO4 Levels (mg/dl) vs control ([1]; 0.01 mg/kg): 77%; % increase in serum Ca^2+ Levels (mg/dl) vs control ([1]; 0.01 mg/kg): 49%
CCCC[C@H](NC(=O)C(C)(Cc1ccccc1F)NC(=O)[C@H](CCC(N)=O)NC(=O)[C@@H](NC(=O)[C@H](CCC(=O)O)NC(=O)C1(NC(=O)[C@@H](NC(=O)C2(N)CCCC2)C(C)C)CCCC1)[C@@H](C)CC)C(=O)N[C@@H](Cc1c[nH]cn1)C(=O)N[C@@H](CCC(N)=O)C(=O)N[C@@H](CCCCNC(=N)N)C(=O)N[C@@H](C)C(=O)N[C@@H](CCCCN)C(=O)NC(C)(Cc1c(F)cccc1F)C(N)=O (some centres unmarked) [Seq. ID. 99] (H-[Ac5c]V[Ac5c]EIQ[ξαMePhe(2-F)][Nle]HQ[hArg]AK[ξαMePhe(2,6-F2)]-NH2)	–	–	–	–	–	–	–	–	% decrease in serum PO4 Levels (mg/dl) vs control ([1]; 2 mg/kg): 89%; % increase in serum Ca^2+ Levels (mg/dl) vs control ([1]; 2 mg/kg): 99%
CCCCC(C)(NC(=O)[C@H](CC(C)C)NC(=O)[C@H](CCC(N)=O)NC(=O)[C@@H](NC(=O)[C@H](CCC(=O)O)NC(=O)C(C)(C)NC(=O)[C@@H](NC(=O)C1(NC(=O)C(C)(N)C(C)C)CCCC1)C(C)C)[C@@H](C)CC)C(=O)N[C@@H](Cc1c[nH]cn1)C(=O)N[C@@H](CCC(N)=O)C(=O)N[C@@H](CCCCNC(=N)N)C(=O)N[C@@H](C)C(=O)N[C@@H](CCCCNC(=N)N)C(=O)NC(C)(Cc1ccccc1F)C(=O)NC(C)(CCCc1ccccc1)C(N)=O (some centres unmarked) [Seq. ID. 939] (H-[ξαMeV][Ac5c]V[Aib]EIQL[ξαMeNle]HQ[hArg]A[hArg][ξαMePhe(2-F)][ξαMe(hhPhe)]-NH2)	> 20 h	10%	08%	> 22 h	> 22 h	09%	–	33%	half-life (t1/2) in liver microsomes [5]: (5) h

Now from value to compound, other results behind:

half-life [2]	metabolised at 24 h, 2 μM [2]	% degradation of peptides in 24 h when incubated with simulated gastric fluid [3]	half-life [3]	half-life [4]	% degradation of peptides in 24 h when incubated with simulated intestinal fluid [4]	half-life [5]	% degradation of peptides in 24 h when incubated with liver microsomes [5]	SMILES	further results
> 24 h	0%	52%	4 h	> 24 h	00%	2 h	81%	CC[C@H](C)[C@H](NC(=O)[C@H](CCC(=O)O)NC(=O)C(C)(C)NC(=O)[C@@H](NC(=O)C1(NC(=O)[C@@H](N)C(C)C)CCCC1)C(C)C)C(=O)N[C@@H](CCC(N)=O)C(=O)N[C@@H](CC(C)C)C(=O)NC(C)(CCSC)C(=O)N[C@@H](Cc1c[nH]cn1)C(=O)N[C@@H](CCC(N)=O)C(=O)N[C@@H](CCCCNC(=N)N)C(=O)N[C@@H](C)C(=O)N[C@@H](CCCCNC(=N)N)C(=O)NC(C)(Cc1ccccc1F)C(=O)NC(C)(CCCc1ccccc1)C(N)=O (some centres unmarked) [Seq. ID. 936] (H-V[Ac5c]V[Aib]EIQL[ξαMeM]HQ[hArg]A[hArg][ξαMePhe(2-F)][ξαMe(hhPhe)]-NH2)	–
> 24 h	0%	00%	> 24 h	> 24 h	00%	–	32%	CC[C@H](C)[C@H](NC(=O)[C@H](CCC(=O)O)NC(=O)C(C)(C)NC(=O)[C@@H](NC(=O)C1(NC(=O)[C@@H](NC)C(C)C)CCCC1)C(C)C)C(=O)N[C@@H](CCC(N)=O)C(=O)N[C@@H](CC(C)C)C(=O)NC(C)(CCSC)C(=O)N[C@@H](Cc1c[nH]cn1)C(=O)N[C@@H](CCC(N)=O)C(=O)N[C@@H](CCCCNC(=N)N)C(=O)N[C@@H](C)C(=O)N[C@@H](CCCCNC(=N)N)C(=O)NC(C)(Cc1ccccc1F)C(=O)NC(C)(CCCc1ccccc1)C(N)=O (some centres unmarked) [Seq. ID. 940] (H-[NMeV][Ac5c]V[Aib]EIQL[ξαMeM]HQ[hArg]A[hArg][ξαMePhe(2-F)][ξαMe(hhPhe)]-NH2)	half-life (t1/2) in liver microsomes [5]: (5) h
–	75%	100%	0.5 h	0.5 h	100%	0.5 h	100%	CCCCC(C)(NC(=O)[C@H](CC(C)C)NC(=O)[C@H](CCC(N)=O)NC(=O)[C@@H](NC(=O)[C@H](CCC(=O)O)NC(=O)C(C)(C)NC(=O)[C@@H](NC(=O)C1(N)CC1)C(C)C)[C@@H](C)CC)C(=O)N[C@@H](Cc1c[nH]cn1)C(=O)N[C@@H](CCC(N)=O)C(=O)N[C@@H](CCCCNC(=N)N)C(=O)N[C@@H](C)C(=O)N[C@@H](CCCCNC(=N)N)C(=O)NC(C)(Cc1c[nH]c2ccccc12)C(=O)N[C@@H](CCCc1ccccc1)C(N)=O (some centres unmarked) [Seq. ID. 945] (H-[Ac3c]V[Aib]EIQL[ξαMeNle]HQ[hArg]A[hArg][ξαMeW][hhPhe]-NH2)	half-life (t1/2) in human plasma [2]: (9) h
–	70%	100%	0.5 h	0.5 h	100%	0.5 h	100%	CCCCC(C)(NC(=O)[C@H](CC(C)C)NC(=O)[C@H](CCC(N)=O)NC(=O)[C@@H](NC(=O)[C@H](CCC(=O)O)NC(=O)C(C)(C)NC(=O)[C@@H](NC(=O)C(C)(C)N)C(C)C)[C@@H](C)CC)C(=O)N[C@@H](Cc1c[nH]cn1)C(=O)N[C@@H](CCC(N)=O)C(=O)N[C@@H](CCCCNC(=N)N)C(=O)N[C@@H](C)C(=O)N[C@@H](CCCCNC(=N)N)C(=O)NC(C)(Cc1c[nH]c2ccccc12)C(=O)NC(C)(CCCc1ccccc1)C(N)=O (some centres unmarked) [Seq. ID. 949] (H-[Aib]V[Aib]EIQL[ξαMeNle]HQ[hArg]A[hArg][ξαMeW][ξαMe(hhPhe)]-NH2)	half-life (t1/2) in human plasma [2]: (9) h
